Source: PubChem BioAssay AID1963840 (Molecular Pharmacology Branch, DTP, NCI, 2024)

System: 695427-040-R-J1-PDC complex spheroid viability
Assay: Anticancer human tumor 695427-040-R-J1-PDC patient-derived colon adenocarcinoma cell line growth inhibition [POLQ]
Conditions: for IC50: curve of first compound; for viability, T/C: stronger effect = lower value
Outline: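 Growth inhibition in 3D: complex spheroids (tumor PDC, HUVEC, MSC) treated with POLQ inhibitor combinations; where Cmax unknown, highest tested concentration 10 microM, except SN-38 at 1 microM.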
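Note: spheroids exposed to compounds for seven days.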
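Throughout, for viability, T/C: 100% = DMSO vehicle control viability.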

**Q.** How did the IC50 (second compound 0.0316 µM) turn out when `CC(=O)O[C@H]1C(=O)[C@@]2(C)[C@H]([C@H](OC(=O)c3ccccc3)[C@]3(O)C[C@H](OC(=O)[C@H](O)[C@@H](NC(=O)c4ccccc4)c4ccccc4)C(C)=C1C3(C)C)[C@]1(OC(C)=O)CO[C@@H]1C[C@@H]2O` + Cc1cccc(N(C)C(=O)C2C(O)CCN2c2nc(C)cc(C(F)(F)F)c2C#N)c1 was run?
**A.** > 3 µM

**Q.** What about the IC50 (second compound 0.1 µM) of the same molecule?
**A.** > 3 µM

**Q.** And the IC50 (second compound 0.316 µM)?
**A.** > 3 µM

**Q.** And the IC50 (second compound 1 µM)?
**A.** > 3 µM

**Q.** And the IC50 (second compound 3.16 µM)?
**A.** > 3 µM

**Q.** What about the IC50 (second compound 10 µM) of the same molecule?
**A.** > 3 µM

**Q.** And the viability, T/C (second compound 0.0316 µM, first compound 0.00949 µM)?
**A.** 96.5%

**Q.** And the viability, T/C (second compound 0.0316 µM, first compound 0.03 µM)?
**A.** 102%

**Q.** What about the viability, T/C (second compound 0.0316 µM, first compound 0.0949 µM) of the same molecule?
**A.** 96.3%

**Q.** And the viability, T/C (second compound 0.0316 µM, first compound 0.3 µM)?
**A.** 98.9%

**Q.** What about the viability, T/C (second compound 0.0316 µM, first compound 0.949 µM) of the same molecule?
**A.** 94.7%

**Q.** And the viability, T/C (second compound 0.0316 µM, first compound 3 µM)?
**A.** 77.9%

**Q.** What about the viability, T/C (second compound 0.1 µM, first compound 0.00949 µM) of the same molecule?
**A.** 112%

**Q.** What about the viability, T/C (second compound 0.1 µM, first compound 0.03 µM) of the same molecule?
**A.** 106%

**Q.** And the viability, T/C (second compound 0.1 µM, first compound 0.0949 µM)?
**A.** 91.8%

**Q.** And the viability, T/C (second compound 0.1 µM, first compound 0.3 µM)?
**A.** 95.3%

**Q.** And the viability, T/C (second compound 0.1 µM, first compound 0.949 µM)?
**A.** 98.3%

**Q.** And the viability, T/C (second compound 0.1 µM, first compound 3 µM)?
**A.** 79.7%

**Q.** And the viability, T/C (second compound 0.316 µM, first compound 0.00949 µM)?
**A.** 111%

**Q.** And the viability, T/C (second compound 0.316 µM, first compound 0.03 µM)?
**A.** 94.8%

**Q.** What about the viability, T/C (second compound 0.316 µM, first compound 0.0949 µM) of the same molecule?
**A.** 95%

**Q.** And the viability, T/C (second compound 0.316 µM, first compound 0.3 µM)?
**A.** 89.5%

**Q.** And the viability, T/C (second compound 0.316 µM, first compound 0.949 µM)?
**A.** 104%

**Q.** What about the viability, T/C (second compound 0.316 µM, first compound 3 µM) of the same molecule?
**A.** 78.7%

**Q.** And the viability, T/C (second compound 1 µM, first compound 0.00949 µM)?
**A.** 102%

**Q.** And the viability, T/C (second compound 1 µM, first compound 0.03 µM)?
**A.** 93.3%

**Q.** What about the viability, T/C (second compound 1 µM, first compound 0.0949 µM) of the same molecule?
**A.** 91.9%

**Q.** And the viability, T/C (second compound 1 µM, first compound 0.3 µM)?
**A.** 98.3%

**Q.** And the viability, T/C (second compound 1 µM, first compound 0.949 µM)?
**A.** 101%

**Q.** What about the viability, T/C (second compound 1 µM, first compound 3 µM) of the same molecule?
**A.** 73.1%

**Q.** And the viability, T/C (second compound 3.16 µM, first compound 0.00949 µM)?
**A.** 97.4%

**Q.** What about the viability, T/C (second compound 3.16 µM, first compound 0.03 µM) of the same molecule?
**A.** 94.2%

**Q.** What about the viability, T/C (second compound 3.16 µM, first compound 0.0949 µM) of the same molecule?
**A.** 91.8%

**Q.** And the viability, T/C (second compound 3.16 µM, first compound 0.3 µM)?
**A.** 88.8%

**Q.** And the viability, T/C (second compound 3.16 µM, first compound 0.949 µM)?
**A.** 97%

**Q.** And the viability, T/C (second compound 3.16 µM, first compound 3 µM)?
**A.** 80.6%

**Q.** And the viability, T/C (second compound 10 µM, first compound 0.00949 µM)?
**A.** 91.3%

**Q.** And the viability, T/C (second compound 10 µM, first compound 0.03 µM)?
**A.** 83.9%

**Q.** And the viability, T/C (second compound 10 µM, first compound 0.0949 µM)?
**A.** 87.9%

**Q.** And the viability, T/C (second compound 10 µM, first compound 0.3 µM)?
**A.** 85.1%

**Q.** And the viability, T/C (second compound 10 µM, first compound 0.949 µM)?
**A.** 94.8%

**Q.** And the viability, T/C (second compound 10 µM, first compound 3 µM)?
**A.** 84.2%
